Test system: 935938-334-R-J1-PDC complex spheroid viability
Test: Anticancer human tumor 935938-334-R-J1-PDC patient-derived small intestine adenocarcinoma cell line growth inhibition [POLQ]
Conditions: for IC50: curve of first compound; for viability, T/C: stronger effect = lower value; active = viability on the fitted dose curve at most 10% of control; inactive = the rest
Description: Multicellular complex tumor spheroid response to Polymerase (POL) inhibitors (novobiocin, ART-558, RP6685) in combination with a variety of drugs and investigational agents in selected tumor cell lines
The POL inhibitors (novobiocin, ART-558, and RP6685) were evaluated both individually and in combination with standard of care and investigational anticancer small molecules within a complex spheroid model of solid tumors. . Complex spheroids include a stromal component modeled by human endothelial cells (HUVEC) and fibroblasts modeled by human mesenchymal stem cells (MSCs). The concentration ranges selected for each drug and investigational agent were based upon clinically achievable concentrations if the clinical Cmax of the agent was known.
Compounds. The drugs and investigational agents: novobiocin (NSC847541), ART-558 (NSC835418), RP-6685 (NSC848927), peposertib (NSC802822), ceralasertib (NSC780249), elimusertib (NSC800525), camonsertib (NSC841442), AZD-1390 (NSC803789), olaparib (NSC753686), talazoparib (NSC767125), rucaparib (NSC756644), sotorasib (NSC818433), MRTX-1133 (NSC836407), SN-38 (NSC673596), topotecan (NSC609699), epotoside (NSC141540), doxorubicin (NSC123127), gemcitabine (NSC613327), 5-fluorouracil (NSC19893), paclitaxel (NSC125973), vemurafenib (NSC761431), MSA-2 (NSC828583), SN-011 (NSC837082), adavosertib (NSC754352), prexasertib (NSC758257), carboplatin (NSC241240) and oxaliplatin (NSC266046), were obtained from the National Cancer Institute (NCI) Developmental Therapeutics Program Chemical Repository (21). The FDA-approved anticancer drug set is available from the Developmental Therapeutics Program at https://dtp.cancer.gov/organization/dscb/obtaining/. […] The stock solutions were prepared in dimethyl sulfoxide (DMSO, Sigma-Aldrich, St. Louis, MO, cat. D2650), except for the platinum compounds which were prepared in saline (Quality Biological, Gaithersburg, MD, cat. 114-055-101), at 800-fold the tested concentration and stored at -70 degrees C prior to their use. All drugs and investigational agents were tested over a range starting from a high concentration at or near the clinical Cmax and decreasing in half-log increments. If the clinical Cmax for an agent had not been determined, the highest concentration tested was 10 microM, except for SN-38, which was tested at a high concentration of 1 microM.
Cell Culture. All cells were maintained in an incubator at 37 degrees C and 5% CO2 with 95% humidity. The PDC lines were cultured according to standard operating procedures established by the NCI PDMR (https://pdmr.cancer.gov). Table 3 of the manuscript, lists the cell lines along with the number of the three cell types plated to form the mct-spheroids and media for tumor cell growth. After thawing, all PDC lines, except 997537-175-T-J1-PDC and 415267-285-R-J2-PDC, were cultured in Matrigel-coated flasks prepared with a working solution of 1X Ham's F-12 nutrient mix, without supplementation (Thermo Fisher Scientific, cat. 11765054), 100 U/mL penicillin-streptomycin (Thermo Fisher Scientific, cat. 15140122), and 2.5% Matrigel (Corning Inc., Corning, NY, cat. 354248) for the first three passages. The two PDC lines 997537-175-T-J1-PDC and 415267-285-R-J2-PDC were cultured on uncoated flasks. The 857933-349-R-J2-PDC line was cultured in 6C/Colon 1B media containing advanced DMEM/F-12 (Thermo Fisher Scientific, cat. 12634028), 10 mM HEPES (Thermo Fisher Scientific, cat. 15630080), 1X GlutaMAX supplement (Thermo Fisher Scientific, cat. 35050061), 0.1 mg/mL primocin (InvivoGen, San Diego, CA, cat. ant-pm-2), 10% defined fetal bovine serum, heat inactivated (HyClone Laboratories Inc., Logan, UT, cat. SH30070.03HI), 50% L-WRN conditioned media (ATCC, cat. CRL-3276), 1.25 mM N-Acetyl-L-cysteine (Sigma-Aldrich, cat. A9165), 10 mM nicotinamide (Sigma-Aldrich, cat. N0636), 1X B-27 supplement (Thermo Fisher Scientific, cat. 17504044), 1X N-2 supplement (Thermo Fisher Scientific, cat. […]

[1] = second compound 0.0316 µM, first compound 0.0316 µM
[2] = second compound 0.0316 µM, first compound 0.1 µM
[3] = second compound 0.0316 µM, first compound 0.316 µM
[4] = second compound 0.0316 µM, first compound 1 µM
[5] = second compound 0.0316 µM, first compound 3.16 µM
[6] = second compound 0.0316 µM, first compound 10 µM
[7] = second compound 0.1 µM, first compound 0.0316 µM
[8] = second compound 0.1 µM, first compound 0.1 µM
[9] = second compound 0.1 µM, first compound 0.316 µM
[10] = second compound 0.1 µM, first compound 1 µM
[11] = second compound 0.1 µM, first compound 3.16 µM
[12] = second compound 0.1 µM, first compound 10 µM
[13] = second compound 0.316 µM, first compound 0.0316 µM
[14] = second compound 0.316 µM, first compound 0.1 µM
[15] = second compound 0.316 µM, first compound 0.316 µM
[16] = second compound 0.316 µM, first compound 1 µM
[17] = second compound 0.316 µM, first compound 3.16 µM
[18] = second compound 0.316 µM, first compound 10 µM
[19] = second compound 1 µM, first compound 0.0316 µM
[20] = second compound 1 µM, first compound 0.1 µM
[21] = second compound 1 µM, first compound 0.316 µM
[22] = second compound 1 µM, first compound 1 µM
[23] = second compound 1 µM, first compound 3.16 µM
[24] = second compound 1 µM, first compound 10 µM
[25] = second compound 3.16 µM, first compound 0.0316 µM
[26] = second compound 3.16 µM, first compound 0.1 µM
[27] = second compound 3.16 µM, first compound 0.316 µM
[28] = second compound 3.16 µM, first compound 1 µM
[29] = second compound 3.16 µM, first compound 3.16 µM
[30] = second compound 3.16 µM, first compound 10 µM
[31] = second compound 10 µM, first compound 0.0316 µM
[32] = second compound 10 µM, first compound 0.1 µM
[33] = second compound 10 µM, first compound 0.316 µM
[34] = second compound 10 µM, first compound 1 µM
[35] = second compound 10 µM, first compound 3.16 µM
[36] = second compound 10 µM, first compound 10 µM
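Also: spheroids exposed to drugs for seven days before viability read.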
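For viability, T/C in this document: 100% = DMSO vehicle control wells.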

CCc1cc2c(N3CCc4c(cc(Cn5ccnc5)cc4-c4cn(C)nc4C(F)(F)F)C3=O)ccnc2c(OC)n1 + Cc1cccc(N(C)C(=O)C2C(O)CCN2c2nc(C)cc(C(F)(F)F)c2C#N)c1
inactive: viability, T/C [1] 69.1% | viability, T/C [2] 66.5% | viability, T/C [3] 68.8% | viability, T/C [4] 58.4% | viability, T/C [5] 69.4% | viability, T/C [6] 55.3% | viability, T/C [7] 74.5% | viability, T/C [8] 75% | viability, T/C [9] 63.2% | viability, T/C [10] 54.5% | viability, T/C [11] 60.6% | viability, T/C [12] 55.8% | viability, T/C [13] 61.5% | viability, T/C [14] 87.3% | viability, T/C [15] 64.2% | viability, T/C [16] 59.7% | viability, T/C [17] 69.5% | viability, T/C [18] 64.1% | viability, T/C [19] 98.3% | viability, T/C [20] 54.9% | viability, T/C [21] 58.3% | viability, T/C [22] 67.8% | viability, T/C [23] 65.8% | viability, T/C [24] 57.6% | viability, T/C [25] 78.3% | viability, T/C [26] 68.3% | viability, T/C [27] 67.9% | viability, T/C [28] 79% | viability, T/C [29] 71.8% | viability, T/C [30] 57.8% | viability, T/C [31] 95.5% | viability, T/C [32] 62.8% | viability, T/C [33] 81.6% | viability, T/C [34] 65.8% | viability, T/C [35] 61.2% | viability, T/C [36] 51.9%
> 10 µM: IC50 (second compound 0.0316 µM) | IC50 (second compound 0.1 µM) | IC50 (second compound 0.316 µM) | IC50 (second compound 1 µM) | IC50 (second compound 3.16 µM) | IC50 (second compound 10 µM)

O=C(Nc1ccc(O)c(NS(=O)(=O)c2ccc(F)cc2)c1)c1ccc(-c2ccccc2)cc1 + Cc1cccc(N(C)C(=O)C2C(O)CCN2c2nc(C)cc(C(F)(F)F)c2C#N)c1
inactive: viability, T/C [1] 116% | viability, T/C [2] 91% | viability, T/C [3] 99.3% | viability, T/C [4] 95% | viability, T/C [5] 89.3% | viability, T/C [6] 64.8% | viability, T/C [7] 83% | viability, T/C [8] 73.9% | viability, T/C [9] 76.1% | viability, T/C [10] 109% | viability, T/C [11] 98.1% | viability, T/C [12] 65.9% | viability, T/C [13] 85.9% | viability, T/C [14] 93.9% | viability, T/C [15] 71.4% | viability, T/C [16] 99.2% | viability, T/C [17] 123% | viability, T/C [18] 65.1% | viability, T/C [19] 91.3% | viability, T/C [20] 80.3% | viability, T/C [21] 100% | viability, T/C [22] 92.2% | viability, T/C [23] 72.8% | viability, T/C [24] 56.2% | viability, T/C [25] 93.2% | viability, T/C [26] 114% | viability, T/C [27] 95.3% | viability, T/C [28] 88.6% | viability, T/C [29] 98.6% | viability, T/C [30] 61% | viability, T/C [31] 92.4% | viability, T/C [32] 106% | viability, T/C [33] 101% | viability, T/C [34] 100% | viability, T/C [35] 71.1% | viability, T/C [36] 45.1%
> 10 µM: IC50 (second compound 0.0316 µM) | IC50 (second compound 0.1 µM) | IC50 (second compound 0.316 µM) | IC50 (second compound 1 µM) | IC50 (second compound 3.16 µM)
8.04 µM: IC50 (second compound 10 µM)

Source: PubChem BioAssay AID1963829 (Molecular Pharmacology Branch, DTP, NCI, 2024)
